≈ marks a conversion by molar mass, not a printed value.
Tests used:
Anas platyrhynchos = settings: acute; oral; unspecified; mortality
Apis mellifera = settings: acute, mortality
Bibionidae = settings: chronic/long-term; duration: 28 days
Landoltia sp. = settings: chronic/long-term; duration: 7 days; frond number
Navicula pelliculosa = settings: acute; duration: 72 hours; growth
Neomysis kadiakensis = settings: chronic/long-term; duration: 28 days; reproduction
Oncorhynchus mykiss = settings: acute; duration: 96 hours; mortality
Oryctolagus sp. = settings: reproduction developmental; body weight
Rattus norvegicus = settings: for LD50: acute, mortality
Tagia sp. = settings: chronic/long-term; duration: 56 days; growth
Aphidius rhopalosiphi = assay: LR50; higher = less toxic; settings: acute; mortality
Colinus virginianus = settings: chronic

Structure (SMILES)	LC50 (acute, duration: 96 hours, mortality)	NOEC (chronic)	LD50 (Anas platyrhynchos)	LD50 (Apis mellifera; dermal)	LD50 (Apis mellifera; oral, unspecified)	NOEC (Bibionidae)	NOEC (Landoltia sp.)	NOEC (Navicula pelliculosa)	NOEC (Neomysis kadiakensis)	LC50 (Oncorhynchus mykiss)	NOAEL (Oryctolagus sp.)	LD50 (Rattus norvegicus)	NOAEL (Rattus norvegicus; chronic, duration: 26 months, organ weight)	NOAEL (Rattus norvegicus; reproduction developmental, histopathology: nonneoplastic)	NOAEL (Rattus norvegicus; subchronic, duration: 90 days, oral, histopathology: nonneoplastic)	NOEC (Tagia sp.)	LR50 (Aphidius rhopalosiphi)	NOAEL (Colinus virginianus)	NOAEL (Rattus norvegicus; reproduction developmental, body weight)
N#Cc1c(Cl)c(Cl)c(Cl)c(C#N)c1Cl [Chlorothalonil]	0.0107 µg/mL (≈ 0.0402 µM)	0.003 mg/L	> 2000 mg/kg-day	> 40 µg/piece	> 40 µg/piece	0.04 mg/L	0.187 mg/L	0.013 mg/L	0.0004 mg/L	0.017 µg/mL (≈ 0.0639 µM)	< 5 mg/kg-day	> 5000 mg/kg-day	1.8 mg/kg-day	< 22.6 mg/kg-day	1.5 mg/kg-day	0.75 mg/kg	> 262 g/ha	–	–
N#Cc1c(O)c(Cl)c(Cl)c(C#N)c1Cl [4-Hydroxy-2,5,6-trichloroisophthalonitrile]	–	–	158 mg/kg-day	–	–	–	–	–	–	–	–	242 mg/kg-day	–	–	–	–	–	10.1 mg/kg-day	1.5 mg/kg-day

Source: EPA's ToxValDB 9.5 (doi:10.2903/j.efsa.2018.5126)
